Experiment: xn = mol fraction of the nth substance listed

CCC[n+]1ccn(C)c1.COS(=O)(=O)[O-] + O
viscosity [mPa·s], 101 kPa
Conditions	298.15 K	308.15 K	318.15 K	328.15 K
x1 = 0.000281	0.799	0.699	0.62	0.566
x1 = 0.0007725	0.805	0.709	0.638	0.57
x1 = 0.0009344	0.814	0.717	0.642	0.575
x1 = 0.001368	0.819	0.727	0.647	0.58
x1 = 0.001628	0.813	0.735	0.66	0.588
x1 = 0.002412	0.829	0.758	0.658	0.602
x1 = 0.004829	0.838	0.796	0.702	0.647
x1 = 0.007746	0.886	0.847	0.757	0.701
x1 = 0.009565	0.931	0.888	0.81	0.736
x1 = 0.01237	0.999	0.93	0.865	0.79
x1 = 0.01639	1.113	1.021	0.963	0.878
x1 = 0.01912	1.182	1.072	1.017	0.953
x2 = 0.9709	1.48	1.268	1.247	1.122
x2 = 0.9746	1.387	1.205	1.167	1.054

CCC(=O)[O-].COCCn1cc[n+](C)c1 + O
100 kPa
Conditions	electrical conductivity [S/m]	viscosity [mPa·s]
288.15 K, x1 = 0.8302	0.318	81.8
288.15 K, x1 = 0.8877	0.241	96.6
288.15 K, x1 = 1	0.109	125.5
293.15 K, x1 = 0.9474	0.222	84.9
298.15 K, x1 = 0.8302	0.426	46.94
298.15 K, x1 = 0.9474	0.285	63.84
298.15 K, x1 = 1	0.228	70.11
303.15 K, x1 = 0.8579	0.483	39.8
313.15 K, x1 = 0.9474	0.588	31.35
318.15 K, x1 = 0.8579	0.839	20
318.15 K, x1 = 0.9474	0.726	24.42

CC(O)C(=O)[O-].CCC[N+]1(C)CCCC1 + CC#N
298 K, 101 kPa
Conditions	electrical conductivity [S/m]
x2 = 0.724	2.67
x2 = 0.749	2.89
x2 = 0.801	3.19
x2 = 0.825	3.33
x2 = 0.849	3.54
x2 = 0.873	3.56
x2 = 0.898	3.5
x2 = 0.91	3.5
x2 = 0.921	3.37
x2 = 0.929	3.24

ClCCl + CCCC[n+]1ccn(C)c1.F[B-](F)(F)F
298.15 K
Conditions	electrical conductivity, 101 kPa [S/m]	viscosity, 101 kPa [mPa·s]	viscosity, 101.33 kPa [mPa·s]
x1 = 0.1	0.265	85	–
x1 = 0.1923	0.348	63.1	–
x1 = 0.2841	0.45	46.1	–
x1 = 0.3884	0.592	31.2	–
x1 = 0.4507	–	–	14.3
x1 = 0.4878	0.772	20	–
x1 = 0.5882	0.99	12.3	–
x1 = 0.6897	1.18	6.73	–
x1 = 0.756	1.26	4	–
x1 = 0.8395	1.18	1.96	–

CC(O)C(=O)[O-].C[N+](C)(C)CCO + CCO
101 kPa
Conditions	viscosity [mPa·s]
293.15 K, x2 = 0.2996	225.4
293.15 K, x2 = 0.7013	17.75
293.15 K, x2 = 0.7987	8.579
298.15 K, x2 = 0.7987	7.357
303.15 K, x2 = 0.601	25.96
303.15 K, x2 = 0.8996	2.853
308.15 K, x2 = 0.2011	144.8
318.15 K, x2 = 0	158.7
318.15 K, x2 = 0.601	15.05
323.15 K, x2 = 0.1039	91.6
323.15 K, x2 = 0.5003	20.51
323.15 K, x2 = 0.7987	3.792
328.15 K, x2 = 0.1039	72.67
328.15 K, x2 = 0.601	11.1
328.15 K, x2 = 0.7987	3.387
333.15 K, x2 = 0.1039	58.6
333.15 K, x2 = 0.601	9.667
338.15 K, x2 = 0.3999	19.08

CO/N=C(\C(=O)N[C@@H]1C(=O)N2C(C(=O)[O-])=C(CSc3nc(=O)c(=O)[n-]n3C)CS[C@H]12)c1csc(N)n1.[Na+].[Na+] + CCCC[n+]1ccc(C)cc1.[Br-] + O
viscosity [mPa·s], 100 kPa
Conditions	x1 = 0.0003495, x2 = 0	x1 = 0.0008732, x2 = 0	x1 = 0.001391, x2 = 0	x1 = 0.002502, x2 = 0	x1 = 0.00312, x2 = 0	x1 = 0.003888, x2 = 0	x1 = 0.004767, x2 = 0	x1 = 0.005484, x2 = 0
288.15 K	1.196	1.273	1.365	1.604	1.745	1.964	2.205	2.45
293.15 K	1.053	1.12	1.2	1.399	1.527	1.701	1.918	2.122
298.15 K	0.935	0.994	1.062	1.231	1.348	1.495	1.674	1.858
303.15 K	0.829	0.885	0.945	1.1	1.195	1.323	1.48	1.638
308.15 K	0.744	0.794	0.849	0.982	1.07	1.184	1.322	1.455

From the CheMixHub ionic liquid set
